Literature values as cited in US20070009558A1, “Sugar-free storage-stable antihistaminic syrups” (priority 2004, published 2007).
Like-named read-outs stand apart in the source and are kept apart here.

## Clc1ccc2c(c1)CCc1cccnc1C2=C1CCNCC1 [Desloratadine, 8-chloro-6,11-dihydro-11-(4-piperdinylidene)-5H-benzo[5,6]cyclohepta[1 ,2-b]pyridine]
In ethanol
  solubility: very soluble
In propylene glycol
  solubility: very soluble
In water
  solubility: slightly soluble
